Assay results reported in patent US8338565B2, “Macrocyclic compounds for inhibition of tumor necrosis factor alpha” (Ensemble Therapeutics Corporation, priority 2008, dated 2012).
Like-named read-outs stand apart in the source and are kept apart here. Numbered stars: 1 amine (or outer) side, 2 acyl side, 3 side chain; on linkers, the order of the positions; unused ones are H or OH. Bridge positions count the residues as written; N and C are the ends. Square brackets hold non-standard residues; d marks the D form. Peptide text beside a SMILES is read from it. * marks the point of attachment. Tartaroyl(2R,3R-(OAc)2) = CC(=O)O[C@@H](C(=O)[*:1])[C@@H](OC(C)=O)C(=O)[*:2]; Phe(4-CF3) = N[C@@H](Cc1ccc(C(F)(F)F)cc1)C(=O)O; Phe(4-COOH) = N[C@@H](Cc1ccc(C(=O)O)cc1)C(=O)O; dPhe(3,4-F2) = N[C@H](Cc1ccc(F)c(F)c1)C(=O)O; Bip = N[C@@H](Cc1ccc(-c2ccccc2)cc1)C(=O)O; dBip = N[C@H](Cc1ccc(-c2ccccc2)cc1)C(=O)O; dPhe(4-NH2) = Nc1ccc(C[C@@H](N)C(=O)O)cc1; Phe(4-NH2) = Nc1ccc(C[C@H](N)C(=O)O)cc1; d1Nal = N[C@H](Cc1cccc2ccccc12)C(=O)O; d(hPhe) = N[C@H](CCc1ccccc1)C(=O)O; d4Pal = N[C@H](Cc1ccncc1)C(=O)O; 2Thi = N[C@@H](Cc1cccs1)C(=O)O; d2Thi = N[C@H](Cc1cccs1)C(=O)O; Suc = O=C(CCC(=O)[*:2])[*:1]; NHCH2CH2OH = OCCN*; βAla = NCCC(=O)O; tBu = CC(C)(C)*

Target: T1, TNFα / TNFα receptor (TNFα R1/Fc) (Homo sapiens, UniProt P01375)
T1 construct: purchased R&D Systems
T1 sequence (P01375 77-233 limits assumed, species assumed): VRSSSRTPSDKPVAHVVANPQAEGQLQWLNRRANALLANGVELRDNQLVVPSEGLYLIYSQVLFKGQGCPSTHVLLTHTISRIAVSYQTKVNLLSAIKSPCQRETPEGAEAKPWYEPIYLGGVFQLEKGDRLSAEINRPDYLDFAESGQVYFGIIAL
Experiment: Inhibition of binding of TNFα to the TNFα receptor (plate ELISA competition)
Details: Table 2
How it was run: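 Compound dilutions were preincubated 30 min at RT with 8.33 nM TNFα R1/Fc in PBST with 2% DMSO, then added to wells coated with 15 nM TNFα for 30 min. Bound receptor was detected with HRP anti-human Fc and TMB, read as A450.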

[1] = read-out: Activity (IC50, inhibition of TNFα binding to TNFα R1/Fc)

NCCCC[C@H](NC(=O)[C@@H]1Cc2ccc(cc2)NC(=O)CCC(=O)N[C@H](Cc2cccs2)C(=O)N[C@@H](Cc2ccc(-c3ccccc3)cc2)C(=O)N[C@H](Cc2ccccc2)C(=O)N1)C(=O)O [Compound 28] ([d2Thi][Bip][dF][Phe(4-NH2)]K-OH; linker N-4 via Suc)
IC50 [1]: < 10 µM

O=C1CCC(=O)N[C@H](Cc2cccs2)C(=O)N[C@@H](Cc2ccc(-c3ccccc3)cc2)C(=O)N[C@H](CCc2ccccc2)C(=O)N[C@H](C(=O)N[C@@H](Cc2ccccc2)C(=O)O)Cc2ccc(cc2)N1 [Compound 445] ([d2Thi][Bip][d(hPhe)][Phe(4-NH2)]F-OH; linker N-4 via Suc)
IC50 [1]: 10 to 30 µM

O=C(O)[C@@H]1Cc2ccc(cc2)NC(=O)[C@@H]2CCCC[C@@H]2C(=O)N[C@H](Cc2cccs2)C(=O)N[C@@H](Cc2ccc(-c3ccccc3)cc2)C(=O)N[C@H](Cc2ccccc2)C(=O)N1 [Compound 187]
IC50 [1]: > 100 µM

O=C1COc2ccc(cc2)C[C@@H](C(=O)N[C@H](Cc2ccccc2)C(=O)O)NC(=O)[C@H](Cc2ccccc2F)NC(=O)[C@@H](Cc2ccc(-c3ccccc3)cc2)NC(=O)[C@H](Cc2cccs2)N1 [Compound 587]
IC50 [1]: < 10 µM

O=C1COc2ccc(cc2)C[C@@H](C(=O)NCCO)NC(=O)[C@H](Cc2ccccc2)NC(=O)[C@H](Cc2ccc(-c3ccccc3)cc2)NC(=O)[C@H](Cc2cccs2)N1 [Compound 338]
IC50 (Activity (IC50, inhibition of TNFα binding to TNFα R1/Fc)): 10 to 30 µM

O=C(O)[C@H](Cc1ccccc1)NC(=O)[C@H]1Cc2ccc(cc2)NC(=O)[C@H](O)[C@@H](O)C(=O)N[C@H](Cc2cccs2)C(=O)N[C@@H](Cc2ccc(-c3ccccc3)cc2)C(=O)N[C@H](CCc2ccccc2)C(=O)N1 [Compound 429]
IC50 [1]: < 10 µM

O=C1CCC(=O)N[C@H](CCc2ccccc2)C(=O)N[C@@H](Cc2ccc(-c3ccccc3)cc2)C(=O)N[C@H](Cc2ccccc2)C(=O)Nc2ccc(cc2)C[C@@H](C(=O)O)N1 [Compound 550]
IC50 [1]: 30 to 100 µM

O=C1COc2ccc(cc2)C[C@@H](C(=O)O)NC(=O)[C@H](CCc2ccccc2)NC(=O)[C@@H](Cc2ccc(-c3ccccn3)cc2)NC(=O)[C@H](Cc2ccccn2)N1 [Compound 667]
IC50 [1]: > 100 µM

O=C1CCC(=O)N[C@H](Cc2cccs2)C(=O)N[C@@H](Cc2ccc(-c3ccccc3)cc2)C(=O)N[C@H](Cc2ccccc2)C(=O)N[C@H](C(=O)NCCO)Cc2ccc(cc2)N1 [Compound 205] ([d2Thi][Bip][dF][Phe(4-NH2)]-NHCH2CH2OH; linker N-4 via Suc)
IC50 [1]: > 100 µM

O=C1CCC(=O)N[C@H](Cc2ccc(O)cc2)C(=O)N[C@@H](Cc2ccc(-c3ccccc3)cc2)C(=O)N[C@H](Cc2ccccc2)C(=O)N[C@H](C(=O)O)Cc2ccc(cc2)N1 [Compound 121] ([dY][Bip][dF][Phe(4-NH2)]-OH; linker N-4 via Suc)
IC50 [1]: > 100 µM

O=C(O)[C@@H]1Cc2ccc(cc2)NC(=O)[C@H](O)[C@@H](O)C(=O)N[C@@H](Cc2cccs2)C(=O)N[C@H](Cc2ccc(-c3ccccc3)cc2)C(=O)N[C@@H](Cc2ccccc2)C(=O)N1 [Compound 271]
IC50 [1]: > 100 µM

O=C(O)CN(Cc1ccccc1)C(=O)[C@@H]1Cc2ccc(cc2)OCC(=O)N[C@@H](Cc2cccs2)C(=O)N[C@H](Cc2ccc(-c3ccccc3)cc2)C(=O)N[C@@H](Cc2ccccc2)C(=O)N1 [Compound 392]
IC50 [1]: 10 to 30 µM

COc1cccc(C[C@H]2NC(=O)[C@H](O)[C@@H](O)C(=O)Nc3ccc(cc3)C[C@@H](C(=O)O)NC(=O)[C@@H](Cc3ccccc3)NC(=O)[C@H](Cc3ccc(-c4ccccc4)cc3)NC2=O)c1 [Compound 317]
IC50 [1]: 10 to 30 µM

O=C(O)[C@H](Cc1ccccc1)NC(=O)[C@@H]1Cc2ccc(cc2)NC(=O)[C@H](O)[C@@H](O)C(=O)N[C@@H](Cc2cccs2)C(=O)N[C@H](Cc2ccc(Br)cc2)C(=O)N[C@@H](CCc2ccccc2)C(=O)N1 [Compound 437]
IC50 [1]: 10 to 30 µM

O=C1CCC(=O)N[C@H](Cc2ccc(F)c(F)c2)C(=O)N[C@@H](Cc2ccc(C(F)(F)F)cc2)C(=O)N[C@H](Cc2ccccc2)C(=O)N[C@H](C(=O)O)Cc2ccc(cc2)N1 [Compound 135] ([dPhe(3,4-F2)][Phe(4-CF3)][dF][Phe(4-NH2)]-OH; linker N-4 via Suc)
IC50 [1]: 30 to 100 µM

O=C1COc2ccc(cc2)C[C@@H](C(=O)N[C@@H](Cc2ccccc2)C(=O)O)NC(=O)[C@H](Cc2ccccc2)NC(=O)[C@@H](Cc2ccc(-c3ccccc3)cc2)NC(=O)[C@H](Cc2cccs2)N1 [Compound 230]
IC50 [1]: 10 to 30 µM

O=C1CCC(=O)N[C@H](Cc2cccs2)C(=O)N[C@@H](Cc2ccc(-c3ccccc3)cc2)C(=O)N[C@H](Cc2ccncc2)C(=O)N[C@H](C(=O)O)Cc2ccc(cc2)N1 [Compound 50] ([d2Thi][Bip][d4Pal][Phe(4-NH2)]-OH; linker N-4 via Suc)
IC50 [1]: > 100 µM

O=C1CCC(=O)N[C@H](Cc2cccc3ccccc23)C(=O)N[C@@H](Cc2ccc(C(F)(F)F)cc2)C(=O)N[C@H](Cc2ccccc2)C(=O)N[C@H](C(=O)O)Cc2ccc(cc2)N1 [Compound 142] ([d1Nal][Phe(4-CF3)][dF][Phe(4-NH2)]-OH; linker N-4 via Suc)
IC50 [1]: 30 to 100 µM

CC(C)(C)Oc1ccc(C[C@@H]2NC(=O)[C@@H](Cc3cccs3)NC(=O)CCC(=O)Nc3ccc(cc3)C[C@@H](C(=O)O)NC(=O)[C@@H](Cc3ccccc3)NC2=O)cc1 [Compound 86] ([d2Thi]Y(tBu)[dF][Phe(4-NH2)]-OH; linker N-4 via Suc)
IC50 [1]: > 100 µM

O=C1CCC(=O)N[C@H](CCc2ccccc2)C(=O)N[C@@H](Cc2ccc(C(F)(F)F)cc2)C(=O)N[C@H](Cc2ccccc2)C(=O)N[C@H](C(=O)O)Cc2ccc(cc2)N1 [Compound 2] ([d(hPhe)][Phe(4-CF3)][dF][Phe(4-NH2)]-OH; linker N-4 via Suc)
IC50 [1]: > 100 µM

O=C1COc2ccc(cc2)C[C@@H](C(=O)N[C@@H](CO)C(=O)O)NC(=O)[C@H](CCc2ccccc2)NC(=O)[C@@H](Cc2ccc(-c3ccccc3)cc2)NC(=O)[C@H](Cc2ccc(-c3ccncc3)cc2)N1 [Compound 583]
IC50 [1]: < 10 µM

O=C(O)[C@@H]1Cc2ccc(cc2)NC(=O)[C@H](O)[C@@H](O)C(=O)N[C@H](Cc2cccs2)C(=O)N[C@@H](Cc2ccc(-c3ccccc3)cc2)C(=O)N[C@H](Cc2cccs2)C(=O)N1 [Compound 283]
IC50 [1]: < 10 µM

O=C1CCC(=O)N[C@@H](Cc2cccs2)C(=O)N[C@H](Cc2ccc(-c3ccccc3)cc2)C(=O)N[C@H](Cc2ccccc2)C(=O)N[C@H](C(=O)O)Cc2ccc(cc2)N1 [Compound 494] ([2Thi][dBip][dF][Phe(4-NH2)]-OH; linker N-4 via Suc)
IC50 [1]: > 100 µM

O=C1COc2ccc(cc2)C[C@@H](C(=O)N[C@@H](CO)C(=O)O)NC(=O)[C@H](Cc2ccc(O)cc2)NC(=O)[C@@H](Cc2ccc(-c3ccccc3)cc2)NC(=O)[C@H](Cc2cccs2)N1 [Compound 563]
IC50 [1]: 30 to 100 µM

N=C(N)NCCC[C@H]1NC(=O)CCC(=O)Nc2ccc(cc2)C[C@@H](C(=O)O)NC(=O)[C@@H](Cc2ccccc2)NC(=O)[C@H](Cc2ccc(C(F)(F)F)cc2)NC1=O [Compound 141] ([dR][Phe(4-CF3)][dF][Phe(4-NH2)]-OH; linker N-4 via Suc)
IC50 [1]: > 100 µM

Cc1ccc(S(=O)(=O)NCCNC(=O)[C@@H]2Cc3ccc(cc3)OCC(=O)N[C@@H](Cc3cccs3)C(=O)N[C@H](Cc3ccc(-c4ccccc4)cc3)C(=O)N[C@@H](CCc3ccccc3)C(=O)N2)cc1 [Compound 484]
IC50 [1]: > 100 µM

CC(=O)O[C@H]1C(=O)Nc2ccc(cc2)C[C@H](C(=O)O)NC(=O)[C@@H](Cc2ccccc2)NC(=O)[C@H](Cc2ccc(-c3ccccc3)cc2)NC(=O)[C@@H](Cc2ccccc2)NC(=O)[C@@H]1OC(C)=O [Compound 222] ([dF][Bip][dF][dPhe(4-NH2)]-OH; linker N-4 via Tartaroyl(2R,3R-(OAc)2))
IC50 [1]: > 100 µM

CC(C)(NC(=O)[C@@H]1Cc2ccc(cc2)NC(=O)[C@H](O)[C@@H](O)C(=O)N[C@H](Cc2cccs2)C(=O)N[C@@H](Cc2ccc(-c3ccccc3)cc2)C(=O)N[C@H](Cc2ccccc2)C(=O)N1)C(=O)O [Compound 176]
IC50 [1]: > 100 µM

O=C(O)CCNC(=O)[C@@H]1Cc2ccc(cc2)NC(=O)CCC(=O)N[C@H](Cc2ccccc2)C(=O)N[C@@H](Cc2ccc(-c3ccccc3)cc2)C(=O)N[C@H](CCc2ccccc2)C(=O)N1 [Compound 459] ([dF][Bip][d(hPhe)][Phe(4-NH2)][βAla]-OH; linker N-4 via Suc)
IC50 [1]: > 100 µM

O=C(OCc1ccccc1)c1ccc(-c2ccc(C[C@@H]3NC(=O)[C@@H](Cc4cccs4)NC(=O)[C@H](O)[C@@H](O)C(=O)Nc4ccc(cc4)C[C@@H](C(=O)O)NC(=O)[C@@H](Cc4ccccc4)NC3=O)cc2)cc1 [Compound 335]
IC50 [1]: 10 to 30 µM

O=C1CCNC(=O)c2ccc(cc2)C[C@@H](C(=O)N[C@@H](Cc2ccccc2)C(=O)O)NC(=O)[C@@H](Cc2ccccc2)NC(=O)[C@H](Cc2ccc(-c3ccccc3)cc2)NC(=O)[C@@H](CCc2ccccc2)N1 [Compound 422] ([βAla][d(hPhe)][Bip][dF][Phe(4-COOH)]F-OH; lactam N-5)
IC50 [1]: < 10 µM

O=C1COc2ccc(cc2)C[C@@H](C(=O)O)NC(=O)[C@H](CCc2ccccc2)NC(=O)[C@@H](Cc2ccc(-c3ccc(F)cc3)cc2)NC(=O)[C@H](Cc2cccs2)N1 [Compound 655]
IC50 [1]: < 10 µM

O=C1N[C@H](Cc2ccco2)C(=O)N[C@@H](C(=O)O)Cc2ccc(cc2)NC(=O)[C@H](O)[C@@H](O)C(=O)N[C@H](Cc2cccs2)C(=O)N[C@H]1Cc1ccc(Br)cc1 [Compound 155]
IC50 [1]: > 100 µM

O=C1COc2ccc(cc2)C[C@@H](C(=O)N2CCC(C(=O)O)CC2)NC(=O)[C@@H](CCc2ccccc2)NC(=O)[C@H](Cc2ccc(-c3ccccc3)cc2)NC(=O)[C@@H](Cc2cccs2)N1 [Compound 306]
IC50 [1]: < 10 µM

O=C(O)[C@@H]1Cc2ccc(cc2)NC(=O)[C@H](O)[C@@H](O)C(=O)N[C@H](Cc2cccs2)C(=O)N[C@@H](Cc2ccc3ccccc3c2)C(=O)N[C@H](Cc2ccccc2)C(=O)N1 [Compound 190]
IC50 [1]: 10 to 30 µM

O=C(O)[C@H](Cc1ccccc1)NC(=O)[C@@H]1Cc2ccc(cc2)NC(=O)[C@H](O)[C@@H](O)C(=O)N[C@H](Cc2cccs2)C(=O)N[C@@H](Cc2ccc(-c3ccc(Cl)cc3)cc2)C(=O)N[C@H](Cc2ccccc2)C(=O)N1 [Compound 443]
IC50 [1]: 10 to 30 µM
